Results from US20090082438A1, “Coordination Compound Composed of Diaminocyclohexane Platinum (II) and Block Copolymer and Anti-Cancer Agent Comprising the Same” (priority 2005, published 2009).
Where a name gives a salt, the structure may show the parent alone.

Columns and labels:
[1] = tested on: mouse colon cancer Colon-26 cell line; assay: Treating Test Example 2: anti-tumor and life-prolongation effect, i.v. administration to Colon-26-transplanted CDF1 mice; assay type: in vivo
[2] = Treating Test Example 2: toxicity (body weight change, deaths) in treated CDF1 mice; settings: 10 mg/kg
Text: In this experiment, the treatment was started on the 9th day after the tumor transplantation.

O=C1[O][Pt-2]2([NH2+]C3CCCC[C@H]3[NH2+]2)[O]C1=O (stereo partly shown) [oxaliplatin, oxalate (1,2-diaminocyclohexane)platinum (II)]
life-prolonging effect (survival) ([1]; doses 2, 4 or 6 mg/kg oxaliplatin): little life-prolonging effect | remarkable tumor growth-inhibiting effect ([1]; oxaliplatin up to 10 mg/kg, every third day, three times): not observed | body weight reduction to [2]: 80% | deaths compared with untreated group (survival number) [2]: earlier deaths than the untreated group
